From EP0365818A1, “Immunological detection of atrazine and atrazine derivatives” (CIBA-GEIGY AG, priority 1988, dated 1990)

How the values were obtained:
Assay type in all cases: binding, Maus
[1] = test system: MAb 4009-85-3 (ECACC 8808/2503); experiment: two-step competitive ELISA (BSA-conjugated hapten on plate), anti-hydroxyatrazine MAb; conditions: for % cross-reactivity (c): (Hydroxyatrazin conc. for 50 % inhibition)/(analogue conc. for 50 % inhibition) x 100; for I 50 ng/ml (a): inhibitor concentration for 50 % inhibition in competitive ELISA
Source text: (§1) Der prozentuale Anteil der Kreuzreaktivität soll im Rahmen dieser Erfindung definitionsgemäss durch die folgende Beziehung wiedergegeben werden: (Atrazin/Hydroxyatrazinkonzentration für 50 % Hemmung/Konzentration der s-Triazin-/Hydroxytriazinanalogen für 50 % Hemmung) x 100.
(§2) Eine 50 %ige Hemmung kann beispielsweise mit Hilfe eines kompetitiven ELISA Assays (vgl. Beispiel 8) bestimmt werden. Diese entspricht dann beispielsweise derjenigen Antigenkonzentration, die zu einer 50 %igen Hemmung der Antikörperbindung an das Träger-gebundene Antigen führt.
(§3) Der Nachweis von Atrazin und Hydroxyatrazin erfolgt mit Hilfe eines zweistufigen, kompetitiven ELISA-Tests.
(§4) BSA-konjugiertes Hapten wird zunächst in einem Natriumcarbonatpuffer (pH 9,6) (0,2 µg/Vertiefung) an Mikrotiterplatten adsorbiert und über Nacht bei einer Temperatur von 4°C inkubiert. Die restlichen freien Bindungsstellen des festen Trägermaterials werden dann durch Zugabe von BSA in Form einer 1 % Lösung blockiert.
(§5) Die Platten werden anschliessend mit PBS gewaschen, das mit 0,1 % (v/v) Polysorbat 20 angereichert ist (PBS-Tween).
(§6) 50 µl der zuvor gereinigten monoklonalen Antikörper (2 µg/ml) oder aber des Ueberstandes der Zellklone (in einer Verdünnung von 1:5 bis 1:22,5) werden a) mit 950 µl einer Standardlösung, die einen steigenden Anteil an Triazin bzw. Triazin-Analogen enthält, b) mit triazinhaltigen Wasserproben oder c) triazinhaltigen Bodenextrakten inkubiert. (Alle Verdünnungen werden in PBS-Tween vorgenommen).
(§7) Nach einer Inkubationszeit von 1 Stunde bei Raumtemperatur werden 200 µl des Gemisches zu jeder Vertiefung der Mikrotiterplatte zugegeben und der gesamte Ansatz wird für eine weitere Stunde inkubiert.
(§8) Die Vertiefungen werden anschliessend 5 x gewaschen und mit 100 µl/Vertiefung Ziegen-anti-Maus IgG Antikörper der konjugiert an alkalische Phosphatase vorliegt (Verdünnung 1:1500) beschickt und für einen Zeitraum von 1,5 Stunden inkubiert.
(§9) Nach erneutem Waschen werden 150 µl/Vertiefung des in 1 mg/ml Diethanolaminpuffer (1 mM, pH 9,8) gelösten Substrates p-Nitrophenylphosphat zu den Vertiefungen zugegeben.
(§10) Ein Farbumschlag, der proportional ist zur Menge an Antikörper, der mit dem an die Festphase gebundenen Antigen reagiert hat, wird bei einer Wellenlänge von 405 nm aufgezeichnet. Die Verdünnungen der einzelnen Proben werden so gewählt, dass man ohne Zugabe eines Inhibitors (Bo) Absorptionswerte in einem Bereich zwischen 0.3 und 0.5 erhält. Für die Kontrollen (ohne Antikörper und mit nicht nachweisbaren Mengen an Antigen) ergeben sich Werte von R ≦ 0.005. Alle Proben werden in dreifacher Ausfertigung bestimmt.
(§11) Zur Ermittlung der in einer Probe enthaltenen Menge an Atrazin/Hydroxyatrazin wird zunächst eine Eichkurve erstellt (Abb. 1), wobei B/Bo x 100 gegen die Konzentration an Inhibitor aufgetragen wird. (Bo bedeutet Absorptionsfähigkeit gemessen ohne Zugabe eines Triazininhibitors zum Antikörper, und B Absorptionsfähigkeit bei Zugabe verschieden konzentrierter Triazin-Inhibitoren) Der I₅₀-Wert gibt diejenige Konzentration des Antigens an, bei der die Antikörperbindung an die Festphase zu 50 % gehemmt wird. Der I₅₀-Wert wird mit Hilfe eines auf die vorliegenden Verhältnisse speziell angepassten ENZFITTER (Leatherbarrow, Elsevier-Biosoft)Kurvenkalkulationsprogramms bestimmt, basierend auf einer 4 Parameter umfassenden logistischen Kurve (Raab GM, 1983). Auch die quantitative Atrazin bzw. Hydroxyatrazinbestimmung in Boden- oder Wasserproben im Rahmen des ELISA wird mit Hilfe des ENZFITTER-Programms durchgeführt, wobei die Anpassung der Kurve auf Standards basiert, die auf jeder Mikrotiterplatte mitlaufen.

[2] = test system: Mab 4009-77-20 (ECACC 8808/2502); experiment: as above; conditions: for % cross-reactivity (c): (Hydroxyatrazin conc. for 50 % inhibition)/(analogue conc. for 50 % inhibition) x 100; for I 50 ng/ml (a): inhibitor concentration for 50 % inhibition in competitive ELISA
Source text: as §1, §2, §3, §4, §5, §6, §7, §8, §9, §10, §11

[3] = test system: MAb 4063-21-1 (ECACC 8808/2501); experiment: two-step competitive ELISA (BSA-conjugated hapten on plate), anti-atrazine MAb; conditions: for % cross-reactivity (b): (Atrazin conc. for 50 % inhibition)/(analogue conc. for 50 % inhibition) x 100; for I 50 ng/ml (a): inhibitor concentration for 50 % inhibition in competitive ELISA
Source text: as §1, §2, §3, §4, §5, §6, §7, §8, §9, §10, §11

Row | SMILES | % cross-reactivity (c) [1] | I 50 ng/ml (a) [1] | % cross-reactivity (c) [2] | I 50 ng/ml (a) [2] | % cross-reactivity (b) [3] | I 50 ng/ml (a) [3] | I 50 ng/ml (a) ([1]; listed as Hydroxyatrazin) [ng/mL] | I 50 ng/ml (a) ([2]; listed as Hydroxyatrazin) [ng/mL]
1 | CCNc1nc(NC(C)C)nc(SC)n1 [Ametryn] | <0,1% | >1000 ng/mL | <0,05% | >1000 ng/mL | 5,0% | 9 ng/mL | – | –
2 | CCNc1nc(NC(C)C)nc(OC)n1 [Atraton] | <0,1% | >1000 ng/mL | <0,05% | >1000 ng/mL | 6,4% | 7 ng/mL | – | –
3 | CCNc1nc(Cl)nc(NC(C)C)n1 [Atrazin] | <0,1% | >1000 ng/mL | <0,05% | >1000 ng/mL | 100,0% | – | – | –
4 | CNc1nc(NC(C)C)nc(SC)n1 [Desmetryn] | – | – | – | – | 0,5% | 90 ng/mL | – | –
5 | CCNc1nc(O)nc(NC(C)C)n1 [OH-Atrazin, Hydroxyatrazin] | 100,0% | 0,95 ng/ml | 100,0% | 0,5 ng/ml | 2,1% | 21 ng/mL | 0.95 | 0.5
6 | CNc1nc(O)nc(NC(C)C)n1 [OH-Desmetryn, Hydroxydesmetryn] | 11,9% | 8 ng/mL | 71,4% | 0,7 ng/ml | 0,1% | 360 ng/mL | – | –
7 | CC(C)Nc1nc(O)nc(NC(C)C)n1 [OH-Propazin, Hydroxypropazin] | 100,0% | 0,95 ng/ml | 83,3% | 0,6 ng/ml | 8,2% | 5,5 ng/ml | – | –
8 | CCNc1nc(O)nc(NCC)n1 [OH-Simazin, Hydroxysimazin] | 1,5% | 65 ng/mL | 41,7% | 1,2 ng/ml | 0,3% | 180 ng/mL | – | –
9 | CCNc1nc(O)nc(NC(C)(C)C)n1 [OH-Terbuthylazin, Hydroxyterbuthylazin] | 5,0% | 19 ng/mL | 15,2% | 3,3 ng/ml | 5,6% | 8 ng/mL | – | –
10 | COc1nc(NC(C)C)nc(NC(C)C)n1 [Prometon] | – | – | – | – | 75,0% | 0,6 ng/ml | – | –
11 | CSc1nc(NC(C)C)nc(NC(C)C)n1 [Prometryn] | – | – | – | – | 56,3% | 0,8 ng/ml | – | –
12 | CC(C)Nc1nc(Cl)nc(NC(C)C)n1 [Propazin] | <0,1% | >1000 ng/mL | <0,05% | >1000 ng/mL | 90,0% | 0,5 ng/ml | – | –
13 | CCNc1nc(Cl)nc(NCC)n1 [Simazin] | – | – | – | – | 2,5% | 18 ng/mL | – | –
14 | CCNc1nc(NCC)nc(SC)n1 [Simetryn] | – | – | – | – | 1,7% | 27 ng/mL | – | –
15 | CCNc1nc(Cl)nc(NC(C)(C)C)n1 [Terbuthylazin] | – | – | – | – | 5,0% | 9 ng/mL | – | –
16 | CCNc1nc(Cl)nc(N(CC)CC)n1 [Trietazin] | – | – | – | – | 11,3% | 4 ng/mL | – | –
